The test system of data set [1] is Salmonella typhimurium tester strain TA97a. The data set can be described thus: AMES testing (bacterial reverse mutation test, Salmonella/microsome assay), strain TA97a. The class given is cell-based. Conditions: for increase in the number of revertants over the concurrent vehicle controls: strain TA97a; for mutagenicity (overall conclusion): strain TA97a in presence of metabolic activation, criterion 2-fold increase in revertants. The source says: (§1) The Ames assay is a rapid, reliable and economical method for screening compounds for potential genetic activity at the nucleotide level. A large database has been accumulated with this assay, confirming its ability to detect genetically active compounds of most chemical classes with around 80 to 90% sensitivity and specificity.
(§2) With the exception of strain TA102, these strains require biotin as well as histidine for growth. In strain TA102 the critical mutation in the histidine gene is located on a multicopy plasmid pAQ1. This strain is particularly sensitive to the activities of oxidative and cross-linking mutagens. The plasmid derivatives (TA98, TA100, TA97a and TA102) have increased sensitivity to certain mutagens as the pKM101 plasmid codes for an error-prone DNA repair system^(1,3).
(§3) When exposed to a mutagen, some of the bacteria in the treated population, through chemical interaction with the compound, undergo genetic changes which cause them to revert to a non-histidine-requiring state and thus grow in the absence of exogenous histidine. Different tester strains are used because each is mutated by particular chemical classes of compound. A compound that is mutagenic in one strain need not be so in another^(1,3).
(§4) Test item: INT 3, also known as 5-fluoro-2-methyl-3-(4,4,5,5-tetramethyl-1,3,2-dioxaborolan-2-yl)aniline. Vehicle: Di-methyl sulfoxide (DMSO) Purity/Content of drug: 97.95%. Molecular Structure:
(§5) Strains of Salmonella typhimurium used^(4,5,6): TA98, TA100, TA1535, TA97a and TA102. Metabolic activation system^(2): Liver S-9 mix from male rats, Aroclor 1254-pretreated. Per plate, 0.5 mL of 5% S-9 mix was added. Controls: Control treatments comprised additions at the same volume per plate (0.1 mL) as the test item solutions. Negative controls comprised treatments with the chosen vehicle.
(§6) Concentrations tested (Mutaqenicity Study): 50, 158, 501, 1582 and 5000 μg/plate (using all strains+/−S-9). […] Mutagenicity: Data from control treatments confirmed the correct strain and assay functioning, and the data were accepted as valid.
(§7) Acceptance criteria: The assay was considered valid as all the following criteria were met: • 1. Vehicle control counts fell within the normal ranges; • 2. The positive control chemicals induced increases in revertant numbers by 5- to 30-fold for different strains when compared to the concurrent vehicle controls confirming discrimination between different strains, and an active S-9 preparation.
(§8) Evaluation criteria: For valid data, the test item was considered mutagenic in this assay if a concentration related increase in revertant numbers of 2-fold (in strains TA98, TA100, TA1535 or TA97a) or 1.5-fold (in strain TA102) the concurrent vehicle control values was observed. […]

Data set [2] has as its system Salmonella typhimurium TA98, TA100, TA1535, TA97a and TA102. The data set can be described thus: AMES testing (bacterial reverse mutation test, Salmonella/microsome assay), all strains. The class given is cell-based.
Description: as §1, §2, §3, §4, §5, §6, §7, §8

As for `Cc1c(N)cc(F)cc1B1OC(C)(C)C(C)(C)O1` [INT 3, 5-fluoro-2-methyl-3-(4,4,5,5-tetramethyl-1,3,2-dioxaborolan-2-yl)aniline], the “increase in the number of revertants over the concurrent vehicle controls” value in data set [1] (Experiment 1, 5000 μg/plate, in the presence of metabolic activation (rat liver S-9)) is recorded as 2.3 fold; in data set [1] (Experiment 2, highest test concentration 5000 μg/plate, in presence of metabolic activation (rat liver S-9)) it was 1.8 fold. Further, the “mutagenicity (overall conclusion)” value in data set [1] is “mutagenic potential”; in data set [1] (listed as INT3), “weak mutagenic potential”. The “increase in revertant numbers over the concurrent vehicle controls, other strain treatments” value in data set [2] (any other strain treatments (TA98, TA100, TA1535, TA97a without S-9), 50-5000 μg/plate, +/- S-9) is reported as less than 2 fold. Moreover, the “cytotoxicity to tester strains” value in data set [2] (preliminary cytotoxicity and mutagenicity test, any strain, presence and absence of metabolic activation, up to 5000 μg/plate) was “did not indicate any cytotoxicity”. In addition, the “increase in revertant numbers over the concurrent vehicle controls, strain TA102” value in data set [2] (strain TA102, 50-5000 μg/plate, +/- S-9) was less than 1.5 fold. Also, the “precipitation of test item” value in data set [2] (up to highest concentration (5000 μg/plate), presence and absence of metabolic activation, vehicle DMSO) is “did not precipitate”.

Source of the values: US20260209185A1, “SYNTHESIS METHODS AND INTERMEDIATES FOR THE PRODUCTION OF REMIMBRUTINIB” (NOVARTIS AG, priority 2022, published 2026).
